These results are taken from publication PMC6400584, “Activation mechanism of ATP-sensitive K^+ channels explored with real-time nucleotide binding” (eLife, 2019).

Assay [1] has as its system SUR1-T1397*/Kir6.2. Nature of the assay: Current inhibition in inside-out patches in the absence of Mg2+. The format is biochemical, Homo sapiens. Here is the method: (§1) Currents were recorded from inside-out membrane patches excised from transfected HEK-293T cells. Pipettes were pulled to a resistance of 1–5 MΩ and filled with an extracellular solution containing (in mM) 140 KCl, 1.2 MgCl2, 2.6 CaCl2, and 10 HEPES, pH 7.4 or 140 KCl, 1 EGTA, 10 HEPES, pH 7.3. The intracellular (bath) solutions contained either (in mM) 107 KCl, 2 MgCl2, 1 CaCl2, 10 EGTA, and 10 HEPES, pH 7.2 for experiments showing nucleotide-dependent activation or 140 KCl, 1 EDTA, 1 EGTA, 10 HEPES pH 7.3 for experiments showing nucleotide-dependent inhibition. Nucleotides were added as indicated. Patches were perfused with an 8-channel µFlow perfusion system. Data were acquired at a holding potential of −60 mV using an Axopatch 200B amplifier and Digidata 1322A digitizer with pClamp 9.0 software (Molecular Devices). Currents were digitized at 10 kHz and low-pass filtered at 1 kHz. KATP channels run down in excised patches (reviewed by Proks et al.) ([Proks et al., 2016]). For inhibitory concentration-response relationships, rundown was corrected by alternating test nucleotide solutions with nucleotide-free (control) solutions and expressing the test currents as a fraction of the average of the control currents before and after the test solution. […]

Assay [2] relates to SUR1-Y1353*/Kir6.2. Nature of the assay: Nucleotide wash-out (dissociation) time course. The conditions noted are these: for t0.5 (time to 50% dissociation): no drug, mean ± SD of individual fits; for reduction of off-rate in the presence of Mg2+ (fold / factor): with vs without Mg2+; for τ of MgTNP-ADP dissociation in the presence of drug / τ of MgTNP-ATP dissociation in the presence of drug: 500 µM tolbutamide or 340 µM diazoxide. Format: binding, Homo sapiens.

Assay [3] has as its target T1, SUR1-T1397*/Kir6.2 (Homo sapiens, UniProt Q09428, T1397X).
T1 construct: confirmed that >95% of SUR1-T1397* was full length; expressed in transfected cells; host or cells: HEK-293T
Nature of the assay: FRET binding of TNP-nucleotides to ANAP-labeled KATP in unroofed membrane fragments. To be noted: absence of Mg2+. The protocol:
(§2) Unroofed membranes were prepared using a modification of a protocol from the Heuser laboratory ([Heuser, 2000]; [Usukura et al., 2012]; [Zagotta et al., 2016]). Briefly, a coverslip containing adherent cells was removed from the cell culture medium and a small piece (0.5–1 cm) was broken off using jewelers forceps (#5) and washed in phosphate buffered saline (PBS, Thermo Fisher Scientific) diluted 1:3 in deionized water. Cells were exposed 3 × 10 s to a solution of 0.01% poly-L-lysine (Sigma) with intervening washes in diluted PBS to adhere them more firmly to the coverslips. The coverslip fragment was then placed in a 30 mm culture dish filled with 2–3 mL of 1/3X PBS and sonicated very briefly (~100 ms) using a probe sonicator (Vibra-cell; Newtown, CT), leaving behind adherent plasma membrane and sometimes additional cellular material. The unroofed fragments in our experiments were sometimes visible under bright-field illumination, a potential result of our modified ‘unroofing’ procedure. Morphologically, such cell fragments resemble the ‘partially unroofed’ cells identified by Usukura et al. ([Usukura et al., 2012]) Cells cultured on poly-D-lysine coated FluoroDishes were unroofed in diluted PBS with no additional poly-L-lysine treatment. This procedure yielded a higher percentage of completely unroofed plasma membranes (i.e. nearly invisible with brightfield illumination).
(§3) Unroofed membrane fragments were imaged directly on FluoroDishes (FD35-PDL-100, World Precision Instruments) or on broken coverslips placed in a FluoroDish (FD3510, World Precision instruments) using a Nikon TE2000-U microscope equipped with a 40x (S Fluor, 1.3 NA; Nikon, Kingston Upon Thames, UK) or 100x (Apo TIRF, 1.49 NA, Nikon) oil-immersion objective and low-fluorescence immersion oil (MOIL-30, Olympus; Southend-on-Sea, UK) or a 60x water immersion objective (Plan Apo VC, 1.20 NA, Nikon). ANAP was excited using a ThorLabs LED source (LED4D067) at 385 nm connected to the microscope using a liquid light guide in series with a 390/18 nm band-pass filter (MF390-18, ThorLabs; Newton, NJ) and MD416 dichroic (ThorLabs). For imaging, emitted light was filtered through a 479/40 nm band-pass filter (MF479-40, ThorLabs). GFP-tagged constructs were imaged using a similar setup with excitation at 490 nm, a 480/40 band-pass excitation filter (Chroma; Bellows Falls, VT), a DM505 dichroic mirror (Chroma), and 510 nm long-pass emission filter (Chroma). All images were acquired using a PIXIS 400B CCD camera (Princeton Instruments; Trenton, NJ). For spectroscopy, ANAP was excited as above, but emitted light was passed through a 400 nm long-pass filter (FEL0400, ThorLabs) and directed through the slit of an Isoplane 160 spectrometer (300 g/mm grating; Princeton Instruments) in series with the camera. The acquired images retained spatial information in the y-dimension, with the x-dimension replaced by wavelength (Figure 1—figure supplement 1a). Exposure times were typically 100 ms for brightfield images, 1–10 s for steady-state spectra and 1–5 s for time-course experiments.
(§4) To prevent accumulation of fluorescent nucleotides in the bath, FluoroDishes were perfused with either (in mM) 140 KCl, 20 NaCl, 10 MgCl2, 10 HEPES pH 7.2 with NaOH or 140 KCl, 20 NaCl, 1 EDTA, 10 HEPES pH 7.2 with NaOH using a peristaltic pump (Ismatec; Wertheim, Germany). Unroofed membranes were directly perfused with nucleotides using an 8-channel µFlow perfusion system (ALA Scientific Instruments; Farmingdale, NY). Solution change with the µFlow was rapid (τ = 0.73 s±0.02 s, n=5) as measured from single exponential fits to wash-out of 50 µM tetramethylrhodamine-5-maleimide (TMRM) after switching to a solution with no TMRM. TMRM was excited with a 565 nm LED with a D540/25X band-pass filter (Chroma) and DM565 dichroic mirror (Chroma). Emitted light was collected through a D605/55M band-pass filter (Chroma). […]

In assay [4] the target is T2, SUR1-Y1353*,K2A/Kir6.2 (Homo sapiens, UniProt Q09428, K1384A/Y1353X).
T2 construct: the signals we measured (fluorescence) were derived solely from full-length (i.e. ANAP-labeled) channels; expressed in transfected cells; host or cells: HEK-293T
Described as above. The conditions noted are these: absence of Mg2+. Here is the method: as §2, §3, §4

The target of assay [5] is SUR1-Y1353*/Kir6.2 (NBS2 of SUR1) (Homo sapiens, UniProt Q09428, Y1353X). Described as above. Here is the method: as §2, §3, §4
The target in assay [6] is T3, SUR1/Kir6.2-G334D (Homo sapiens, UniProt Q09428).
T3 construct: expressed in transfected cells; host or cells: HEK-293T
Nature of the assay: Current activation in inside-out patches. The format is biochemical. Here is the method:
as §1

The target in assay [7] is T2, SUR1-Y1353*,K2A/Kir6.2. Nature of the assay: Nucleotide wash-out (dissociation) time course. The format is binding. The conditions noted are these: absence of Mg2+.
From the text: as §4, with “[…] Solution exchange” for “Emitted light”, “also monitored during experiments with TNP-nucleotides by examining the emission spectrum of” for “collected through”, “background region in each image.” for “D605/55M band-pass filter (Chroma).”
To measure the time course of nucleotide unbinding, the fluorescence at the TNP-nucleotide peak (usually around 560 nm) was plotted as a function of time after exchanging to a zero-nucleotide solution, as following the time course of the rise in ANAP fluorescence was complicated by photobleaching. After complete wash out of nucleotides, the fluorescence at 560 nm was non-zero, as the shoulder of the ANAP emission spectrum extends into the range of wavelengths at which TNP-nucleotides emit. […]

The mark [8] stands for this setting: absence of Mg2+, fit to combined data.
[9] abbreviates: mean ± SEM of fits to individual experiments.
Setting [10] is: absence of Mg2+ (1 mM EDTA), mean ± SEM of fits to individual experiments.

Where two headings read alike, the source gives them in different places.

For orientation: IC50 means the point on the concentration scale where inhibition reaches its midpoint. `Nc1ncnc2c1ncn2[C@@H]1O[C@H](COP(=O)(O)OP(=O)(O)OP(=O)(O)O)[C@@H](O)[C@H]1O` [ATP]: the IC50 in assay [1] (Equation 4 fit to combined data) came out at 49.2 µM; in assay [1] (mean ± SEM of fits of Equation 4 to individual experiments), 53.9 ± 9.4 µM.
Broadly, the EC50 is the concentration that produces a half-maximal response. `Nc1ncnc2c1ncn2[C@@H]1O[C@H](COP(=O)(O)OP(=O)(O)OP(=O)(O)O)[C@H]2OC3(O[C@H]21)C([N+](=O)[O-])=CC(=[N+]([O-])[O-])C=C3[N+](=O)[O-]` (some centres unmarked) [TNP-ATP, trinitrophenyl-ATP]: the “t0.5 (time to 50% dissociation)” value in assay [2] (absence of Mg2+) worked out at 4.8 ± 1.5 s. Besides, in assay [2] (setting [8]), the “A1 of dissociation (bi-exponential amplitude)” value was 0.65 ± 0.06. For the same compound, the “A2 of dissociation (bi-exponential amplitude)” value in assay [2] (setting [8]) is reported as 0.35 ± 0.06. Moreover, in assay [2] (setting [8]), the “τ1 of dissociation (bi-exponential)” value was found to be 4.5 s. Moreover, the “τ2 of dissociation (bi-exponential)” value in assay [2] (setting [8]) was determined as 28.2 s. For the same compound, the “reduction of off-rate in the presence of Mg2+ (fold / factor)” value in assay [2] was found to be 2.2. The EC50 in assay [3] (fit to combined data) is 4.8 µM; in assay [3] (setting [9]), 4.7 ± 0.8 µM; in assay [5] (EC50, absence of Mg2+ (1 mM EDTA), mean ± SEM of fits to individual experiments), 12.8 ± 5.6 µM; in assay [5] (EC50, absence of Mg2+, fit to combined data), 8.5 µM. In addition, the Emax in assay [3] (fit to combined data) stood at 0.94 ± 0.02; in assay [3] (setting [9]), 0.94 ± 0.01; in assay [4] (fit to combined data), 0.87 ± 0.03; in assay [4] (setting [9]) it was 0.90 ± 0.03; in assay [5] (setting [10]) it was 0.83 ± 0.03; in assay [5] (setting [8]), 0.84 ± 0.04. In addition, the h is listed as 0.8 ± 0.1 in assay [3] (fit to combined data); 0.83 ± 0.09 in assay [3] (setting [9]); 0.9 ± 0.2 in assay [4] (fit to combined data); 0.98 ± 0.13 in assay [4] (setting [9]); 0.88 ± 0.06 in assay [5] (setting [10]); 0.8 ± 0.1 in assay [5] (setting [8]).
For the compound `CC1=NS(=O)(=O)c2cc(Cl)ccc2N1` [diazoxide], in assay [2] (fit to combined data), the “τ of MgTNP-ADP dissociation in the presence of drug” value is 52.6 s and the “τ of MgTNP-ATP dissociation in the presence of drug” value is 60.5 s.
As to `CCCCNC(=O)NS(=O)(=O)c1ccc(C)cc1` [tolbutamide], the effect on currents entry in assay [6] is reported as “inhibited”. In assay [2] (fit to combined data), the “τ of MgTNP-ADP dissociation in the presence of drug” value was 6.4 s and the “τ of MgTNP-ATP dissociation in the presence of drug” value is 6.3 s.
With trinitrophenyl-ADP [TNP-ADP], the results for the “t0.5 (time to 50% dissociation)” value in assay [2] (absence of Mg2+) and in assay [7] (mean ± SD) were 2.9 ± 0.5 s and 3.8 ± 1.0 s, respectively. The “τ of dissociation (single exponential)” value worked out at 4.2 s in assay [2] (setting [8]) and 5.4 s in assay [7] (fit to combined data). In assay [2], the “reduction of off-rate in the presence of Mg2+ (fold / factor)” value is on record as ~ 5. For the same compound, the concentration giving a half-maximal response (EC50) in assay [3] (fit to combined data) was 5.6 µM; in assay [3] (setting [9]) it was 6.3 ± 2.3 µM; in assay [4] (fit to combined data), 4.4 µM; in assay [4] (setting [9]), 5 ± 1 µM; in assay [5] (absence of Mg2+ (1 mM EDTA), mean ± SEM of fits to individual experiments, read-out: EC50) it was 6.8 ± 1.3 µM; in assay [5] (absence of Mg2+, fit to combined data, read-out: EC50) it was 6.1 µM. In addition, the Emax in assay [3] (fit to combined data) is listed as 0.98 ± 0.05; in assay [3] (setting [9]), 0.98 ± 0.02; in assay [4] (fit to combined data) it was 0.91 ± 0.02; in assay [4] (setting [9]), 0.92 ± 0.02; in assay [5] (setting [10]), 0.95 ± 0.01; in assay [5] (setting [8]) it was 0.95 ± 0.02. Also, the h in assay [3] (fit to combined data) was found to be 0.7 ± 0.1; in assay [3] (setting [9]), 0.84 ± 0.13; in assay [4] (fit to combined data), 0.9 ± 0.1; in assay [4] (setting [9]) it was 0.88 ± 0.05; in assay [5] (setting [10]), 0.79 ± 0.04; in assay [5] (setting [8]), 0.8 ± 0.1. Also, the “effect of increasing concentration to 10 mM on amount of quenching” value in assay [5] (absence of Mg2+, n = 3, data not shown) is recorded as “did not significantly change”.
